From ChEMBL document CHEMBL6115036, “Exploration of membrane-active cephalosporin derivatives as potent antibacterial agents against Staphylococcus aureus biofilms and persisters” (Eur J Med Chem, 2025)
In brackets after ≈: the same amount, converted by molar mass. Activity calls are given as the source filed them. The rule behind the calls is not given here.

What was measured:
[1] = Hemolytic activity in sheep red blood cells incubated for 1 hr; format: toxicity, cell-based, Ovis aries, Erythrocyte
Staphylococcus aureus [2] = experiment: Antibacterial activity against Staphylococcus aureus assessed as effect on quiescent cells at 100 to 200 times MIC incubated for 24 hrs; format: functional, organism-based
Escherichia coli = experiment: Antimicrobial activity against Escherichia coli incubated for 16 to 18 hrs by broth dilution assay; format: functional; conditions: time 16-18 hrs
Staphylococcus aureus [3] = experiment: Antibacterial activity against Staphylococcus aureus in presence of 50% FBS; format: functional, organism-based
Staphylococcus aureus [4] = experiment: Induction of resistance development in drug-resistant Staphylococcus aureus at sub-MIC measured after 20 passages in presence of ampicillin sodium; format: functional, organism-based
Staphylococcus aureus [5] = experiment: Antibacterial activity against rifampicin-induced persistant Staphylococcus aureus assessed as decrease in CFU at 100 times MIC measured for 10 hrs; format: functional, organism-based
Staphylococcus aureus [6] = experiment: Induction of resistance development in drug-resistant Staphylococcus aureus at sub-MIC measured after 20 passages in presence of levofloxacin; format: functional, organism-based
Staphylococcus aureus [7] = experiment: Induction of resistance development in drug-resistant Staphylococcus aureus at sub-MIC measured after 20 passages in presence of vancomycin; format: functional, organism-based
Staphylococcus aureus [8] = experiment: Induction of intracellular ROS accumulation in Staphylococcus aureus at 1 to 4 times MIC incubated overnight by DCFH-DA dye based analysis; format: functional, organism-based
Enterococcus faecalis = experiment: Antimicrobial activity against Enterococcus faecalis incubated for 16 to 18 hrs by broth dilution assay; format: functional; conditions: time 16-18 hrs
Staphylococcus aureus [9] = experiment: Bactericidal activity against Staphylococcus aureus measured for 3 to 6 hrs in presence of 50% sheep plasma; format: functional, organism-based; conditions: time 3-6 hrs
Staphylococcus aureus [10] = experiment: Antimicrobial activity against Staphylococcus aureus incubated for 16 to 18 hrs by broth dilution assay; format: functional; conditions: time 16-18 hrs
Staphylococcus aureus [11] = experiment: Induction of resistance development in drug-resistant Staphylococcus aureus at sub-MIC measured after 20 passages in presence of cefuroxime sodium; format: functional, organism-based
[12] = tested on: Stenotrophomonas maltophilia; experiment: Antimicrobial activity against Stenotrophomonas maltophilia incubated for 16 to 18 hrs by broth dilution assay; format: functional; conditions: time 16-18 hrs
Staphylococcus aureus [13] = experiment: Antibacterial activity against Staphylococcus aureus infected in Kunming mouse model of subcutaneous abscess assessed as bacterial count in skin tissue at 10 mg/kg, sc measured after 48 hrs; format: functional
Staphylococcus aureus [14] = experiment: Induction of resistance development in drug-resistant Staphylococcus aureus at sub-MIC measured after 20 passages in presence of ciprofloxacin; format: functional, organism-based
Staphylococcus aureus [15] = experiment: Induction of resistance development in drug-resistant Staphylococcus aureus at sub-MIC measured after 20 passages in presence of norfloxacin; format: functional, organism-based
Staphylococcus aureus [16] = experiment: Disruption of cell membrane in Staphylococcus aureus assessed as nucleic acid leakage at 32 ug/ml measured after 2 hrs by fluorescence based analysis; format: functional, organism-based; conditions: dose 32.0 µg/ml
Staphylococcus aureus [17] = experiment: Induction of resistance development in Staphylococcus aureus at sub-MIC measured after 20 passages; format: functional, organism-based
Staphylococcus aureus [18] = experiment: Induction of resistance development in drug-resistant Staphylococcus aureus at sub-MIC measured after 20 passages in presence of linezolid; format: functional, organism-based
Staphylococcus aureus [19] = experiment: Inhibition of biofilm formation in Staphylococcus aureus assessed as decrease in bacterial count at 32 times MIC incubated for 24 hrs by CLSM analysis; format: functional, organism-based
Staphylococcus aureus [20] = experiment: Induction of resistance development in drug-resistant Staphylococcus aureus at sub-MIC measured after 20 passages in presence of rifampicin; format: functional, organism-based
Staphylococcus aureus [21] = experiment: Antibacterial activity against Staphylococcus aureus infected in Kunming mouse model of subcutaneous abscess assessed as reduction in bacterial load in skin tissue at 10 mg/kg, sc measured after 48 hrs relative to control; format: functional; design: scale not given: the % may be the effect or the level left
Staphylococcus aureus [22] = experiment: Antibacterial activity against Staphylococcus aureus in presence of 50% sheep plasma; format: functional, organism-based
Staphylococcus aureus [23] = experiment: Disruption of cell membrane in Staphylococcus aureus assessed as protein leakage at 32 ug/ml measured after 2 hrs by fluorescence based analysis; format: functional, organism-based; conditions: dose 32.0 µg/ml

SMILES: CC(=O)OCC1=C(C(=O)O)N2C(=O)[C@@H](NC(=O)Cc3cccs3)[C@H]2SC1 [CEPHALOTHIN]
- HC50 at 1 h [1]: > 1280 µg/mL
- Activity (Staphylococcus aureus [2]): inactive
- MIC (Escherichia coli): 16 µg/mL (≈ 40.4 µM)
- Activity (Staphylococcus aureus [3]): Active; Mic Value Of Compound In Serum Was Equal To Mic In Mhb Medium
- Activity (Staphylococcus aureus [4]): inactive
- Activity (Staphylococcus aureus [5]): inactive
- Activity (Staphylococcus aureus [6]): inactive
- Activity (Staphylococcus aureus [7]): inactive
- Activity (Staphylococcus aureus [8]): inactive
- MIC (Enterococcus faecalis): 32 µg/mL (≈ 80.7 µM)
- Activity (Staphylococcus aureus [9]): Active
- MIC (Staphylococcus aureus [10]): 0.25 µg/mL (≈ 0.631 µM)
- Activity (Staphylococcus aureus [11]): inactive
- MIC [12]: 16 µg/mL (≈ 40.4 µM)
- Activity (Staphylococcus aureus [13]): ~2 10^7CFU/ml
- Activity (Staphylococcus aureus [14]): inactive
- Activity (Staphylococcus aureus [15]): inactive
- Activity (Staphylococcus aureus [16]): inactive
- Activity (Staphylococcus aureus [17]): inactive
- Activity (Staphylococcus aureus [18]): inactive
- inhibition (Staphylococcus aureus [19]): inactive
- Activity (Staphylococcus aureus [20]): inactive
- Activity (Staphylococcus aureus [21]): 54%
- Activity (Staphylococcus aureus [22]): Active; Mic Value Of Compound In Plasma Was Equal To Mic In Mhb Medium
- Activity (Staphylococcus aureus [23]): inactive
